Laboratory results taken from patent US20070155764A1, “NOVEL SUBSTITUTED PYRIMIDINYLOXY UREAS USEFUL AS INHIBITORS OF PROTEIN KINASES” (KALYPSYS, INC., priority 2005, published 2007).

Assays:
[1] = biological target: T1, human B-Raf protein kinase (Homo sapiens, UniProt P15056); experiment: In vitro B-Raf/Mek1 composite kinase assay; type: biochemical; conditions: recombinant GST-tagged human B-Raf (Δ1-415) with inactive Mek1, 2 μM ATP
T1 construct: GST (N); purchased Upstate Inc. 14-530 (B-Raf); 14-420 (Mek1)
In short: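 Luminescent ATP-depletion assay using recombinant N-terminal GST-tagged human B-Raf (Δ1-415, 1 ng/well) in MOPS pH 7.2 buffer with 10 mM MgCl2. Compounds were preincubated 15 min at about 22° C, then the reaction ran 2 h before PKLight readout. Efficacy is expressed as percentage of positive-control (Bay 43-9006) activity.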

VEGFR2 kinase = biological target: T2, VEGFR2 kinase (Homo sapiens, UniProt P35968); experiment: In vitro VEGFR2 kinase assay; type: biochemical; conditions: ADP Quest assay, poly Glu:Tyr substrate, 60 μM ATP
T2 construct: purchased Invitrogen Inc PV3660
In short: (§1)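 Compound was preincubated 10 min at ~22 °C with 20 ng VEGFR2 or 25 ng PDGFRβ, then poly Glu:Tyr (4:1) substrate (0.25 μg) with 60 μM ATP (in added buffer) was reacted 2 h at 30 °C. ADP Quest resorufin fluorescence was read (ex 530/em 580) after 30 min. Efficacy is expressed as percent of positive-control (Bay 43-9006) activity, with DMSO as negative control.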

PDGFRβ kinase = biological target: T3, PDGFRβ kinase (Homo sapiens, UniProt P09619); experiment: In vitro PDGFRβ kinase assay; type: biochemical; conditions: ADP Quest assay, poly Glu:Tyr substrate, 60 μM ATP
T3 construct: purchased Invitrogen Inc. P3082
In short: as §1

[2] = tested on: HT-29 human colon carcinoma tumor cells; experiment: In vivo anti-tumor activity, HT-29 xenograft; conditions: 60 mg/kg once daily by oral gavage
Description: In Vivo Anti-Tumor Activity
Acclimated female Balb/C nu/nu mice are injected subcutaneously into the flank with cell pellets of 5×10^6 HT-29 human colon carcinoma tumor cells (ATCC #HTB-38). The mice are fed sterile rodent chow and water ad libitum, and kept in pathogen-free, sterile-filtered cages with half-day light/dark cycles. Tumors are allowed to grow until they reach an average size of 100-150 mm^3, determined by caliper measurement. One day before beginning treatment, mice are randomized by tumor size into evenly distributed cohorts. Mice are dosed once daily by oral gavage (10 ml/kg) with compounds formulated as solutions in Cremaphor EL:Ethanol:Water, at a 1:1:6 ratio. Control mice are dosed with the formulation vehicle only. Tumor size and mouse weight are monitored every three to four days. At the end of the study, treatment efficacy is determined by the T/C value, calculated by dividing the average tumor size of a compound-treated cohort by the average tumor size of the control-treated cohort, expressed as a percentage. Therefore, anti-tumor efficacy is inversely proportional to the T/C.

T2 sequence (P35968 20-1356): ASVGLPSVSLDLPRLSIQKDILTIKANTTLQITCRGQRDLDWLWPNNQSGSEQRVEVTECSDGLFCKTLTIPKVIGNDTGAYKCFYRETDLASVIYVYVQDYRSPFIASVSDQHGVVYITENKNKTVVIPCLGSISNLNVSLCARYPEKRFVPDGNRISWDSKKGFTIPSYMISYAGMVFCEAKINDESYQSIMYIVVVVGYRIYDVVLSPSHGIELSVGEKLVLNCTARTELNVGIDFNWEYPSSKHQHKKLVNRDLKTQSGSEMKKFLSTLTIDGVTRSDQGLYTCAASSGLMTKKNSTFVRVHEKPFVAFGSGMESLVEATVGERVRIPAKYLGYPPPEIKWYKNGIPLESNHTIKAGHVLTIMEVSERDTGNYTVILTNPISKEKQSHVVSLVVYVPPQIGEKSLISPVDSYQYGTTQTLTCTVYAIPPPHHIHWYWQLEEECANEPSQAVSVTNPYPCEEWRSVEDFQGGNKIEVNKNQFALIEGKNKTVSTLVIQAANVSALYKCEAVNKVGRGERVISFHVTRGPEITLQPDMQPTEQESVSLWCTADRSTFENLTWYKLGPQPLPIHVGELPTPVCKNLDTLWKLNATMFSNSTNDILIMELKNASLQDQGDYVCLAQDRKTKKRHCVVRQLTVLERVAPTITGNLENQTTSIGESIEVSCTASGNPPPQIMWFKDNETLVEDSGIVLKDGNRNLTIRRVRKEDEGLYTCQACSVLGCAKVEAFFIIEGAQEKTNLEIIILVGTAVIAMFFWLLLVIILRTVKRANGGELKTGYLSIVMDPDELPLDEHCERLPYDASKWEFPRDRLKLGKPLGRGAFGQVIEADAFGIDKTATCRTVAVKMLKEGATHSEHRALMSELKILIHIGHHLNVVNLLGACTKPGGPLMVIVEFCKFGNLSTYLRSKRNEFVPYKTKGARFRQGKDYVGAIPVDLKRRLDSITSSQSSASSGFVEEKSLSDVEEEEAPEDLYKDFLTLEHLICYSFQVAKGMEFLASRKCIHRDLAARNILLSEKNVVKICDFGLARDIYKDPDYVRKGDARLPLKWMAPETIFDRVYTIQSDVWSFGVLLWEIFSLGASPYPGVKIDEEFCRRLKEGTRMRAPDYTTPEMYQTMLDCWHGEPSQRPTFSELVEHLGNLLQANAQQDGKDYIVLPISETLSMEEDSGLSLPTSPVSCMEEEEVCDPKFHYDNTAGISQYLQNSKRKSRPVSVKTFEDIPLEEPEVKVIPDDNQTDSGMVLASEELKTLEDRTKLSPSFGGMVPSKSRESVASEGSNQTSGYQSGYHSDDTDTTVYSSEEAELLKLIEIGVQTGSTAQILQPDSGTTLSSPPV
T3 sequence (P09619 33-1106): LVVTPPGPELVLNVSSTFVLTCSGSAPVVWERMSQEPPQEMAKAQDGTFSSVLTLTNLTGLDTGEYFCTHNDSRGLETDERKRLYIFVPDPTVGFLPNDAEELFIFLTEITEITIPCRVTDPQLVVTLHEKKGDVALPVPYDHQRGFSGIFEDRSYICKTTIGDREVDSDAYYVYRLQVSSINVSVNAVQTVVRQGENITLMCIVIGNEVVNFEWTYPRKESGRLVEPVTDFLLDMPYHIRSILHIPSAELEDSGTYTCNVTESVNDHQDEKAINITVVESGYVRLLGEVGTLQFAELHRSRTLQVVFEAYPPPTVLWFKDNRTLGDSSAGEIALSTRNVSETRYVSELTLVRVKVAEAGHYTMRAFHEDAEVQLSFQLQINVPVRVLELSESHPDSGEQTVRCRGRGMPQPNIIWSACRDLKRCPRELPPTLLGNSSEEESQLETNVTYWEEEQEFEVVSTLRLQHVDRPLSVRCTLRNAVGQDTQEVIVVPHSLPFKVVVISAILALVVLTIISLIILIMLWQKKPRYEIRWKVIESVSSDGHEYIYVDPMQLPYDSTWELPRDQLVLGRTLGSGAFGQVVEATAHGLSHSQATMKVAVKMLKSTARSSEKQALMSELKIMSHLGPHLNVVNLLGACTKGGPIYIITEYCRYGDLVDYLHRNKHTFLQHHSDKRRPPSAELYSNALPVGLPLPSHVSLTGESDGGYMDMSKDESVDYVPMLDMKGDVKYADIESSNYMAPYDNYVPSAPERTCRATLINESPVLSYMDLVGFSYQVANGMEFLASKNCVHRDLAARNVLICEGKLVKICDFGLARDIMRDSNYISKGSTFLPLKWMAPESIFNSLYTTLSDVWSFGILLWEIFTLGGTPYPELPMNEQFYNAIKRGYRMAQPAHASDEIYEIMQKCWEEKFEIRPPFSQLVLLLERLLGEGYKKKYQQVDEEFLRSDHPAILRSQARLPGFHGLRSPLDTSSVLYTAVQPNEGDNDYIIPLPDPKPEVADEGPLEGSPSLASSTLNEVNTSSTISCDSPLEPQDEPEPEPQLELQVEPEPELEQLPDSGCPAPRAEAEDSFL
T1 sequence (P15056 416-766): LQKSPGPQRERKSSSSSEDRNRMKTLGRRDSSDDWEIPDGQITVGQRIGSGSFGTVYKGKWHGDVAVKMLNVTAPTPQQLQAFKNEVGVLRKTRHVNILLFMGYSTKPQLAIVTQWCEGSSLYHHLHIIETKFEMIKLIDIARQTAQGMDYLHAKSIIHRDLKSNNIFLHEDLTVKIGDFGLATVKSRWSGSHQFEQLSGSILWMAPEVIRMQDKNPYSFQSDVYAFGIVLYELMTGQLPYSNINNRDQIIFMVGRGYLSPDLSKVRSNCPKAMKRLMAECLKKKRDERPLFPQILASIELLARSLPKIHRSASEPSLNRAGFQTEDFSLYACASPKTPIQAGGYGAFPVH

SMILES	IC50 [1] [µM]	IC50 (VEGFR2 kinase) [µM]	IC50 (PDGFRβ kinase) [µM]	T/C (%) ([2]; HT-29 subcutaneous tumors in female Balb/C nu/nu mice, treated/control average tumor size at end of study)	Survival ([2]; HT-29 tumor-bearing female Balb/C nu/nu mice, surviving/total)
Cn1cc(-c2cc(Oc3cccc(NC(=O)Nc4ccc(Cl)c(C(F)(F)F)c4)c3)ncn2)cn1 [Example 34, 1-(4-Chloro-3-(trifluoromethyl)phenyl)-3-(3-(6-(1-methyl-1H-pyrazol-4-yl)pyrimidin-4-yloxy)phenyl)urea]	≤ 10	≤ 10	≤ 10	20	10/10
Cn1cc(-c2cc(Oc3ccc(F)c(NC(=O)Nc4ccc(C(F)(F)F)cc4Cl)c3)ncn2)cn1 [Example 97, 1-(2-Chloro-4-(trifluoromethyl)phenyl)-3-(2-fluoro-5-(6-(1-methyl-1H-pyrazol-4-yl)pyrimidin-4-yloxy)phenyl)urea]	≤ 10	≤ 10	≤ 10	–	–
Cn1cc(-c2cc(Oc3ccc(F)c(NC(=O)Nc4ccc(C(F)(F)F)cc4)c3)ncn2)cn1 [Example 100, 1-(2-Fluoro-5-(6-(1-methyl-1H-pyrazol-4-yl)pyrimidin-4-yloxy)phenyl)-3-(4-(trifluoromethyl)phenyl)urea]	≤ 10	≤ 10	≤ 10	–	–
Cc1cc(NC(=O)Nc2cc(Oc3cc(-c4cnn(C)c4)ncn3)ccc2F)no1 [Example 104, 1-(2-Fluoro-5-(6-(1-methyl-1H-pyrazol-4-yl)pyrimidin-4-yloxy)phenyl)-3-(5-methylisoxazol-3-yl)urea]	≤ 10	≤ 10	≤ 10	–	–
O=C(Nc1cccc(Oc2cc(-c3ccnc4ccnn34)ncn2)c1)Nc1ccc(Cl)c(C(F)(F)F)c1 [Example 106, 1-(4-Chloro-3-(trifluoromethyl)phenyl)-3-(3-(6-(pyrazolo[1,5-a]pyrimidin-7-yl)pyrimidin-4-yloxy)phenyl)urea]	≤ 10	≤ 10	≤ 10	–	–
O=C(Nc1cccc(Oc2cc(-c3ccnc4ncnn34)ncn2)c1)Nc1ccc(Cl)c(C(F)(F)F)c1 [Example 107, 1-(3-(6-([1,2,4]Triazolo[1,5-a]pyrimidin-7-yl)pyrimidin-4-yloxy)phenyl)-3-(4-chloro-3-(trifluoromethyl)phenyl)urea]	≤ 10	≤ 10	≤ 10	–	–
CN(C(=O)Nc1ccc(Oc2ccnc(-c3nnco3)c2)cc1)c1ccc(Cl)c(C(F)(F)F)c1 [Example 108, 3-(4-(2-(1,3,4-Oxadiazol-2-yl)pyridin-4-yloxy)phenyl)-1-(4-chloro-3-(trifluoromethyl)phenyl)-1-methylurea]	> 10	> 10	> 10	–	–
CN(C(=O)Nc1ccc(Cl)c(C(F)(F)F)c1)c1ccc(Oc2ccnc(-c3nnco3)c2)cc1 [Example 110, 1-(4-(2-(1,3,4-Oxadiazol-2-yl)pyridin-4-yloxy)phenyl)-3-(4-chloro-3-(trifluoromethyl)phenyl)-1-methylurea]	≤ 10	≤ 10	≤ 10	–	–
Cc1ccc(F)c(NC(=O)N(C)c2ccc(Oc3ccnc(-c4nnco4)c3)cc2)c1 [Example 112, 3-(2-Fluoro-5-methyl-phenyl)-1-methyl-1-[4-(2-[1,3,4]oxadiazol-2-yl-pyridin-4-yloxy)-phenyl]-urea]	≤ 10	> 10	≤ 10	–	–
CN(C(=O)Nc1ccc(Cl)c(Cl)c1)c1ccc(Oc2ccnc(-c3nnco3)c2)cc1 [Example 113, 3-(3,4-Dichloro-phenyl)-1-methyl-1-[4-(2-[1,3,4]oxadiazol-2-yl-pyridin-4-yloxy)-phenyl]-urea]	≤ 10	> 10	≤ 10	–	–
CNC(=O)c1cccc(NC(=O)N(C)c2ccc(Oc3ccnc(C(=O)NC)c3)cc2)c1 [Example 115, 4-{4-[1-Methyl-3-(3-methylcarbamoyl-phenyl)-ureido]-phenoxy}-pyridine-2-carboxylic acid methylamide]	≤ 10	> 10	> 10	–	–
CNC(=O)c1cc(NC(=O)N(C)c2ccc(Oc3ccnc(C(=O)NC)c3)cc2)cc(C(F)(F)F)c1 [Example 116, 4-{4-[1-Methyl-3-(3-methylcarbamoyl-5-trifluoromethyl-phenyl)-ureido]-phenoxy}-pyridine-2-carboxylic acid methylamide]	> 10	≤ 10	≤ 10	–	–
CN(C(=O)Nc1ccc(Cl)c(C(F)(F)F)c1)c1ccc(Oc2ccnc(-c3nc(C(F)(F)F)c[nH]3)c2)cc1 [Example 120, 3-(4-Chloro-3-trifluoromethyl-phenyl)-1-methyl-1-{4-[2-(4-trifluoromethyl-1H-imidazol-2-yl)-pyridin-4-yloxy]-phenyl}-urea]	≤ 10	≤ 10	≤ 10	–	–

Second part, led by results:

IC50 [1] [µM]	IC50 (VEGFR2 kinase) [µM]	IC50 (PDGFRβ kinase) [µM]	SMILES	T/C (%) ([2]; HT-29 subcutaneous tumors in female Balb/C nu/nu mice, treated/control average tumor size at end of study)	Survival ([2]; HT-29 tumor-bearing female Balb/C nu/nu mice, surviving/total)
≤ 10	≤ 10	≤ 10	Cn1cc(-c2nccc(Oc3cccc(NC(=O)Nc4cccc(C(F)(F)F)c4)c3)n2)cn1 [Example 98, 1-(3-(2-(1-Methyl-1H-pyrazol-4-yl)pyrimidin-4-yloxy)phenyl)-3-(3-(trifluoromethyl)phenyl)urea]	–	–
≤ 10	≤ 10	≤ 10	Cn1cc(-c2nccc(Oc3ccc(NC(=O)Nc4cccc(C(F)(F)F)c4)cc3)n2)cn1 [Example 99, 1-(4-(2-(1-Methyl-1H-pyrazol-4-yl)pyrimidin-4-yloxy)phenyl)-3-(3-(trifluoromethyl)phenyl)urea]	–	–
> 10	≤ 10	≤ 10	Cn1cc(-c2cc(Oc3ccc(NC(=O)Nc4ccc(C(F)(F)F)cc4)cc3)ncn2)cn1 [Example 101, 1-(4-(6-(1-Methyl-1H-pyrazol-4-yl)pyrimidin-4-yloxy)phenyl)-3-(4-(trifluoromethyl)phenyl)urea]	–	–
≤ 10	≤ 10	≤ 10	Cn1cc(-c2nccc(Oc3ccc(NC(=O)Nc4ccc(C(F)(F)F)cc4)cc3)n2)cn1 [Example 102, 1-(4-(2-(1-Methyl-1H-pyrazol-4-yl)pyrimidin-4-yloxy)phenyl)-3-(4-(trifluoromethyl)phenyl)urea]	–	–
> 10	≤ 10	≤ 10	Cc1cc(NC(=O)Nc2ccc(Oc3ccnc(-c4cnn(C)c4)n3)cc2)no1 [Example 105, 1-(4-(2-(1-Methyl-1H-pyrazol-4-yl)pyrimidin-4-yloxy)phenyl)-3-(5-methylisoxazol-3-yl)urea]	–	–
≤ 10	> 10	> 10	CN(C(=O)Nc1cccc(Oc2ccnc(-c3nnco3)c2)c1)c1ccc(Cl)c(C(F)(F)F)c1 [Example 109, 3-(3-(2-(1,3,4-Oxadiazol-2-yl)pyridin-4-yloxy)phenyl)-1-(4-chloro-3-(trifluoromethyl)phenyl)-1-methylurea]	–	–
> 10	> 10	≤ 10	CN(C(=O)Nc1ccc(Cl)c(C(F)(F)F)c1)c1cccc(Oc2ccnc(-c3nnco3)c2)c1 [Example 111]	–	–
≤ 10	≤ 10	≤ 10	CNC(=O)c1cc(Oc2ccc(N(C)C(=O)Nc3ccc(Cl)c(C(F)(F)F)c3)cc2)ccn1 [Example 114, 4-{4-[3-(4-Chloro-3-trifluoromethyl-phenyl)-1-methyl-ureido]-phenoxy}-pyridine-2-carboxylic acid methylamide]	–	–
> 10	≤ 10	≤ 10	CNC(=O)c1cc(Oc2ccc(N(C)C(=O)Nc3cc(OCCOC)cc(C(F)(F)F)c3)cc2)ccn1 [Example 117, 4-(4-{3-[3-(2-Methoxy-ethoxy)-5-trifluoromethyl-phenyl]-1-methyl-ureido}-phenoxy)-pyridine-2-carboxylic acid methylamide]	–	–
≤ 10	≤ 10	≤ 10	CNC(=O)c1cc(Oc2ccc(N(C)C(=O)Nc3cc(-n4cnc(C)c4)cc(C(F)(F)F)c3)cc2)ccn1 [Example 118, 4-(4-{1-Methyl-3-[3-(4-methyl-imidazol-1-yl)-5-trifluoromethyl-phenyl]-ureido}-phenoxy)-pyridine-2-carboxylic acid methylamide]	–	–
≤ 10	≤ 10	≤ 10	CN(C(=O)Nc1ccc(Cl)c(C(F)(F)F)c1)c1ccc(Oc2ccnc(-c3cnn(C)c3)c2)cc1 [Example 119, 3-(4-Chloro-3-trifluoromethyl-phenyl)-1-methyl-1-{4-[2-(1-methyl-1H-pyrazol-4-yl)-pyridin-4-yloxy]-phenyl}-urea]	–	–
